Experiments:
[1] = molecular target: GPR55 (Homo sapiens, UniProt Q9Y2T6); settings: cited from earlier work
[2] = molecular target: T1, CB2R (Homo sapiens, UniProt P34972); settings: cited from earlier work
[3] = molecular target: T1, CB2R; settings: cited from earlier work; remark: listed apart in the source
[4] = tested on: cortical KCl induced periorbital allodynia in female rats; experiment: Cortical KCl induced periorbital (facial) allodynia in female rats; type: in vivo, rat; settings: for reversal of periorbital allodynia / prevention of periorbital allodynia: female rats
Method: FIG. 2A-D: Cortical KCl, but not dural KCl, induces periorbital allodynia in female rats and activates cFOS. A. Cortical KCl (0.5 μL, 1M) induces significant periorbital allodynia that is not blocked by dural lidocaine (2%, 5 μl, 10-15 min) pretreatment. […] C. Comparing areas under the curves for A and B confirmed that cortical KCl, regardless of dural lidocaine, induces significant periorbital allodynia that is not replicated by dural application of KCl. D. Cortical KCl allodynia increases cortical cFos 90 min post-injection (n=3-4/group). Data are mean±SEM (n=8-11), one or two-way ANOVA, *p<0.05: **<0.01: ***p<0.001: dotted line-naïve.
FIG. 8A-B: MAGL inhibition alleviates cortical KCl induced periorbital allodynia in female rats. […] Data are expressed mean±SEM (n=8-12), two-way RMANOVA Bonferroni, *p<0.051 **p<0.01: ****p<0.0001.
FIG. 9A-B: ABHD6 inhibition alleviates cortical KCl induced periorbital allodynia in female rats. […] Data are expressed mean±SEM (n=8-12), two-way RMANOVA Bonferroni, *p<0.05: **p<0.01: ***p<0.001.
FIG. 10A-B: Dual MAGL/ABHD6 inhibition alleviates cortical KCl induced periorbital allodynia in female rats. […] Data are expressed mean±SEM (n=7-14), two-way RMANOVA, Bonferroni, *p<0.05: **p<0.01: ****p<0.0001.
(§1) FIG. 13A-B: MAGL inhibition and cannabinoid receptor selectivity. Injection of CB1R antagonist, rimonabant (1 mg/kg, IP) prior to KCl shifted onset of MJN110 (10 mg/kg, IP) by 30 min. CB2R antagonist, SR144528 (1 mg/kg, IP), injected prior to KCl blocked the anti-allodynic effect of MJN110. Data are expressed mean±SEM (n=9), one- and two-way ANOVA, *p<0.05, ***p<0.001, ****p<0.0001.
Data are expressed mean±SEM (n=8-12), two-way RMANOVA Bonferroni, *p<0.051 **p<0.01: ****p<0.0001.
Data are expressed mean±SEM (n=8-12), two-way RMANOVA Bonferroni, *p<0.05: **p<0.01: ***p<0.001.
Data are expressed mean+SEM (n=7-14), two-way RMANOVA, Bonferroni, *p<0.05: **p<0.01: ****p<0.0001.
as §1, with “Injection” for “FIG. 13A-B: MAGL inhibition and cannabinoid receptor selectivity. Injection”, “mean #SEM” for “mean±SEM”

[5] = tested on: migraine pain; settings: preclinical, cited from earlier work

T1 sequence (P34972 whole entry): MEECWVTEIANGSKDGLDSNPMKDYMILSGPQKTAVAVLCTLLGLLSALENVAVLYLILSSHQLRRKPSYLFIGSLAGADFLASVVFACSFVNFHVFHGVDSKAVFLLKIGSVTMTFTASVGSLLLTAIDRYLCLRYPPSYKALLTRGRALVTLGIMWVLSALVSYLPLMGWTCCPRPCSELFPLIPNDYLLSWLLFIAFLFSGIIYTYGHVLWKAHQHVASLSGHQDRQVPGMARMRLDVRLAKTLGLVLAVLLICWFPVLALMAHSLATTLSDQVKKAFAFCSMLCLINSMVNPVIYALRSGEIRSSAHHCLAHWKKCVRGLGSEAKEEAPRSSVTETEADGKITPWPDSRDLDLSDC
Chain of GPR55 (Q9Y2T6 whole entry, species assumed): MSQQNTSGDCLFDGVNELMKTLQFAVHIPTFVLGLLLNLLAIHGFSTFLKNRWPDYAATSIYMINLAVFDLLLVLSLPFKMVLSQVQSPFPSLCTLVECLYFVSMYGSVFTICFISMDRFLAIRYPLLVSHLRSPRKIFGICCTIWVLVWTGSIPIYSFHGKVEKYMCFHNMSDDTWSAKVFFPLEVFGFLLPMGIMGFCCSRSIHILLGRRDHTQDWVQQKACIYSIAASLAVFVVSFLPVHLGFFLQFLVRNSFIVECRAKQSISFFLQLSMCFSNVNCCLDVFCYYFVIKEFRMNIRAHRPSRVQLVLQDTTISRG

## CCCCC/C=C\C/C=C\C/C=C\C/C=C\CCCC(=O)OC(CO)CO [2AG, 2-arachidonoylglycerol]
[1]
  EC50: 618 nM
[2]
  Ki: 175 to 1400 nM
[3]
  EC50: 4 nM
  Emax: 34%

## O=C(N1CCCCC1c1ccccc1)n1cc(-c2ccc(-c3cccc(CO)c3)cc2)nn1 (centres unmarked) [KT182, (4-(3′-(hydroxymethyl)-[1,1′-biphenyl]-4-yl)-1H-1,2,3-triazol-1-yl)(2-phenylpiperidin-1-yl) methanone]
[4]; KT182 2 mg/kg IP after cortical KCl (0.5 μL)
  reversal of periorbital allodynia: reverses
[4]; KT182 2 mg/kg IP before cortical KCl (0.5 μL)
  prevention of periorbital allodynia: prevents

## O=C(ON1C(=O)CCC1=O)N1CCN(C(c2ccc(Cl)cc2)c2ccc(Cl)cc2)CC1 [MJN110, 2,5-dioxopyrrolidin-1-yl 4-(bis(4-chlorophenyl)methyl)piperazine-1-carboxylate]
[4]; MJN110 10 mg/kg IP after cortical KCl (0.5 μL)
  reversal of periorbital allodynia: reverses
[4]; MJN110 10 mg/kg IP before cortical KCl (0.5 μL)
  prevention of periorbital allodynia: prevents

## CCCCCc1cc(O)c2c(c1)OC(C)(C)[C@@H]1CCC(C)=C[C@@H]21 [THC]
[5]; acute
  reduction of migraine pain: effective
[5]; repeated exposure
  migraine-like pain: increases

## CCN(CC)CC(=O)Nc1c(C)cccc1C [lidocaine]
[4]; dural lidocaine 2%, 5 μl, 10-15 min pretreatment, cortical KCl 0.5 μL, 1M
  block of cortical KCl induced periorbital allodynia: not blocked
[4]; lidocaine pretreatment, dural KCl 5 uL, 1M
  effect on periorbital allodynia after dural KCl: no effect

## Cc1c(C(=O)NN2CCCCC2)nn(-c2ccc(Cl)cc2Cl)c1-c1ccc(Cl)cc1 [rimonabant]
[4]; rimonabant 1 mg/kg IP prior to KCl, MJN110 10 mg/kg IP
  shift of onset of MJN110 effect: 30 min

## SR144528
[4]; SR144528 1 mg/kg IP prior to KCl, MJN110 10 mg/kg IP
  effect on the anti-allodynic effect of MJN110: blocked
